The values that follow come from ChEMBL document CHEMBL1141065, “Inhibition of mandelate racemase by the substrate-intermediate-product analogue 1,1-diphenyl-1-hydroxymethylphosphonate” (Bioorg Med Chem Lett, 2005).

Assay [1] addresses T1, Mandelate racemase (Pseudomonas putida, UniProt P11444).
T1 sequence (P11444 whole entry): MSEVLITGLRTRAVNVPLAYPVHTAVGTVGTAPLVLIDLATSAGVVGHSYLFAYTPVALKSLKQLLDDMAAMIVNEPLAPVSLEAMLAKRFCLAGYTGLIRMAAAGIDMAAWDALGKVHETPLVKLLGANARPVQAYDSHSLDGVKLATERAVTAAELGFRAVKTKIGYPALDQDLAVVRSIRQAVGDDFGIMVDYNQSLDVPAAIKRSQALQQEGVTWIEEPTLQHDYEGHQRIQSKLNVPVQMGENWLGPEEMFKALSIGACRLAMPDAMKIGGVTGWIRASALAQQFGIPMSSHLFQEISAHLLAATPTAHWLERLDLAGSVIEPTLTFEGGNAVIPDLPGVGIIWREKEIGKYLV
Kind of assay: Inhibitory activity against Mandelate racemase at pH 6.3 at 25 degree C.

Assay [2] addresses T1, Mandelate racemase. Kind of assay: Inhibitory activity against Mandelate racemase at pH 7.5 at 25 degree C.
The target of assay [3] is T1, Mandelate racemase. Briefly: Inhibitory activity against Mandelate racemase at pH 8.7 at 25 degree C.

As to `O=P(O)(O)C(O)(c1ccccc1)c1ccccc1`, the Ki (usually the dissociation constant of the complex between target and ligand, obtained from inhibition or displacement) was 5.91 mM in assay [1], 1.41 mM in assay [2] and 6.93 mM in assay [3].
